The source of these data is patent US4080471A, “Use of substituted isopropylaminopropanols for inducing inotropic effects of the human heart” (priority 1976, dated 1978).

The structures appear in SMILES notation. Some results are limits rather than exact numbers.

In assay [1] the test system is beta-receptors of the heart. Nature of the assay: Beta-adrenergic (chronotropic, heart frequency) effects on anesthetized cat pretreated with reserpine. Particulars: dose ratio >1 indicates a heart selective effect. It counts as in vivo. As to the method:
(§1) Chronotropic (heart frequency) and vasodilatating effects:
(§2) When the cats had been anaesthetized with Mebumal® 30 mg/kg bodyweight i.p., an artificial air respiration was started. The two vagus nerves were cut and the blood passing through a femoral artery was fed via a catheter and a pump back to the distal part of the vessel. Parallelly, a pressure transducer was connected by which the perfusion pressure was registered. At a perfusion with a constant flow, the perfusion pressure is directly proportional to the peripheral resistance of the vascular bed of the hind limb. Blood circulation in the foot was interrupted with a ligature. Heart frequency was registered with a cardiotachometer triggered by the ECG. The substances were administered intravenously in increasing doses and the dose-response curves of the heart frequency and the vasodilatation were constructed.
(§3) Further, the dose ratios (ED50 for vasodilatation/ED50 for heart frequency) are calculated. A dose ratio >1 indicates a heart selective effect.

Assay [2] addresses T1, beta-receptors of the heart (Felis catus, UniProt Q9TST6).
T1 construct: Heart frequency was registered with a cardiotachometer triggered by the ECG; from tissue; host or cells: heart of the anaesthetized cat in vivo (reserpine-pretreated, vagotomized)
The description is as above. It counts as in vivo. How it is done: as §1, §2, §3

For assay [3], the target named is T2, beta-receptors of the blood vessels (Felis catus, UniProt Q9TST5).
T2 construct: from tissue; host or cells: hind-limb vascular bed of the anaesthetized cat in vivo (constant-flow perfusion, reserpine-pretreated)
Briefly: Vasodilatating effect (hind limb perfusion pressure) on anesthetized cat pretreated with reserpine. The format is in vivo. Particulars: cat, iv, read-out: ED50 Vasodilation. How it is done: as §1, §2, §3

Another assay relates to heart. Nature of the assay: Effect on heart contractility (maximum dP/dt) of the anesthetized dog. It counts as in vivo. The source says:
Effects of Compound I and Ouabain On the Heart Contractility and Rhythmicity of the Anesthetized Dog
The object of the test was to compare compound I and oubain administered alone and in combination with each other to study the inotropic effect (maximum dP/dt in the left ventricle) and a possibly arrhythmic effect. The latter included an investigation of the ability of the compounds to cause repetitive ventricular response (RVR) when the heart was electrically stimulated via an electrode on the ventricle at the electrically vulnerable phase at the end of the T-wave. Klein et al. (M. Klein, N. S. Nejad, B. Lown, F. Hagemeijer and I. Blair, Circulation Research, 29, 635 (1971)) have shown that digitalis caused RVR at a dose which was about 70% of the dose giving spontaneous ventricular arrhythmias.
The dog was anesthetized with Mebumal® 30 mg/kg bodyweight i.v. Artificial respiration was applied. The sinus-node was electrocoagulated and the heart frequency was kept constant at 180 beats/minute in each test by electrical pacing of the auricle. Mean arterial blood pressure was registered from the carotis artery. ECG was registered during the test. Further, the pressure in the left ventricle was registered via a catheter inserted through the apex and connected to a pressure transducer. The intraventricular pressure curve was derivated to obtain maximum dP/dt which is a measure of the contractile force of the heart.
The test was started with a series of control registrations, whereupon the compounds were administered 3 times by infusion during five minutes and with an interval of 50 minutes between each infusion.
In the experiment with compound I only, the compound was administered in two doses of 10 μg/kg bodyweight and then one dose of 20 μg/kg bodyweight. Ouabain was given in 3 consecutive doses of 20 μg/kg bodyweight. In the combination test ouabain was first given in a dose of 20 μg/kg bodyweight followed by two doses of compound I of 10 and 20 μg/kg bodyweight, respectively.

Assay [4] deals with T1, beta-receptors of the heart. Nature of the assay: Heart frequency increase before and after beta-blockade with Inderal. The format is in vivo, cat. To be noted: 0.01 mg/kg bodyweight i.v. How it is done:
as §2

Where [5] appears, read: 20 minutes after administration, ouabain versus compound I.
Setting [6] is: anesthetized dog, i.v. infusion.

T1 sequence (Q9TST6 whole entry): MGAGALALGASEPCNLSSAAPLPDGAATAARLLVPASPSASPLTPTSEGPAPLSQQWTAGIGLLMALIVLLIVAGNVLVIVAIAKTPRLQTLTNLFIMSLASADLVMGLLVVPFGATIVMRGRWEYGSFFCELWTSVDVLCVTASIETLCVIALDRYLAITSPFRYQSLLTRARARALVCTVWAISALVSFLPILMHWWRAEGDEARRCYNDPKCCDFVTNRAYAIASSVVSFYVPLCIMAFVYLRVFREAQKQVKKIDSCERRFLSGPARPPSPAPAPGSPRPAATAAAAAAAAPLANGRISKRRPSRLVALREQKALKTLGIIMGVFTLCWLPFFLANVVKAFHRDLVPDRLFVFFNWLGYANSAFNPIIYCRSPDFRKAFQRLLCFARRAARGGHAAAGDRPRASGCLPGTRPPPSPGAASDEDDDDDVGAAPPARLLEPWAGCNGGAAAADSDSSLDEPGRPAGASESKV
T2 sequence (Q9TST5 whole entry, the tested form may be a part): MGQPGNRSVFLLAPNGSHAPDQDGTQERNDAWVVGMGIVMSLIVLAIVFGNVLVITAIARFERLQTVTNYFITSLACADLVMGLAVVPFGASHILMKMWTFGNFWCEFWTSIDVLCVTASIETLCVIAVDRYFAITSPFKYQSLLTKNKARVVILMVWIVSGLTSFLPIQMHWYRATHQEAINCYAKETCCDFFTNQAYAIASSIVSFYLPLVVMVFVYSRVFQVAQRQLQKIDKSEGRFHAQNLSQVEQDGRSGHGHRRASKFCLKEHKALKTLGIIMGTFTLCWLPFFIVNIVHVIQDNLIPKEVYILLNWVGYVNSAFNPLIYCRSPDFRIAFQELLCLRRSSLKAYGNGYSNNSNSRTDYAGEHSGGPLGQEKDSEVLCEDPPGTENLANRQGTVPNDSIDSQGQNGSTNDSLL

With `CC(C)NCC(O)COc1ccc(O)cc1` (stereo not shown) [Compound I, 1-isopropylamino-3-(p-hydroxyphenoxy)-propanol-2], the “Selectivity: ED50 Vasodilatation / ED50 Heart Frequency” value in assay [1] is reported as greater than 100. Besides, in assay [2] (cat, iv, read-out: ED50 Heart Frequency), the median effective dose (ED50) – broadly, the dose at which the effect has come halfway, by size or by number of responders – came out at 6 µg/kg. The “potency relative to isoprenaline, chronotropic effect” value in assay [2] (isoprenaline = 1, cat i.v.) is listed as “about 1/100”. Moreover, the median effective dose (ED50) in assay [3] is greater than 1000 µg/kg. In the assay with heart (20 minutes after administration), the “increase of aortic blood pressure” value is “no effect”. In addition, in the assay with heart (setting [5]), the “doses giving approximately the same level of maximum dP/dt (lower pair)” value is on record as “about 10 μg/kg bodyweight” and the “doses giving corresponding effect on maximum dP/dt (higher pair)” value is listed as 20 μg/kg bodyweight. Also, in the assay with heart (setting [6]), the “effect on maximum dP/dt (in words)” value is “increased the maximum dP/dt”, the “onset of effect on maximum dP/dt” value is recorded as “immediate” and the “reduction of effect on maximum dP/dt after 50 minutes” value was “almost completely reduced after 50 minutes”. The “ventricular contractility compared with ouabain (in words)” value in the assay with heart (at same increase of maximum dP/dt) is “increased the ventricular contractility a little more than ouabain”. The “increase of heart frequency, given after Inderal” value in assay [4] (after 0.2 mg/kg i.v. Inderal) stood at 10 beats/minute. In addition, the “increase of heart frequency, given before Inderal” value in assay [4] (before Inderal, average) was 60 beats/minute.
